Results taken from patent US20050170028A1, “Polysaccharide extract from Lycium barbarum as neuroprotective agent against beta-amyloid peptide neurotoxicity” (priority 2004, published 2005).

Experiments:
Type in all cases: cell-based
[1] = tested on: caspase-3; assay: colorimetric caspase-3 activity assay in neurons exposed to Aβ-peptide
Method: Caspase-3 has long been regarded as an index for neuronal apoptosis. Therefore, the colorimetric caspase-3 activity assay was performed at the concentrations stated in FIG. 5, and neuronal apoptosis was determined by the colorimetric caspase-3 activity assay by measuring the absorbance (at 405 nm) of the yellow product (pNA) cleaved from the substrate. Results (***p<0.001 vs. the group treated with Aβ-peptide alone, by one-way ANOVA, Tukey test) are expressed as mean±SE from at least three independent experiments.
Caspase-3 is a general apoptosis marker. For apoptosis analysis, the colorimetric caspase-3 activity assay (at 405 nm) was performed.
It is also a well-known Western medicine for the treatment of manic-depressive bi-polar disorder. […] Neurons were pretreated with either LiCl (2 mM to 20 mM) or LBA (0.1 μg/ml to 500μ/ml) for 1 hour, and then exposed to Aβ25-35 peptide (25 μM) for 24 hours. Caspase-3 activity assay was used to determine the protective effects against Aβ-peptide toxicity. […] The unit of concentration of LiCl was converted from mM to μ/ml for the purpose of comparison with LBA. […] The toxicity decreased when the concentration of LiCi increased and it reached the lowest value (8.5%) when LiCi was used at 850 μ/ml (20 mM). Accordingly, LiCl could effectively reduce Aβ-peptide-stimulated caspase-3 activity in the range of 340 μg/ml to 850 μg/ml (i.e. 8 mM to 20 mM). LBA exerted protective effects for neurons against Aβ-peptide toxicity from very low concentration to high concentration (0.1 μg/ml to 500 μg/ml).
It has been reported that specific inhibitor of JNK, SP600125, also exerts protection for neurons against Aβ-peptide toxicity. We therefore compared the therapeutic window of SP600125 with LBA to elucidate their effectiveness in neuroprotection. Neurons were pretreated with either SP600125 (5 μM to 20 μM) or LBA (0.1 μg/ml to 500 μg/ml) for 1 hour, and then exposed to Aβ-peptide (25 μM) for 16 hours. Caspase-3 activity assay was done to investigate their protective effects against Aβ-peptide toxicity. Thus, after treatment, colorimetric caspase-3 activity assay was done to examine the level of apoptosis. Caspase-3 activity was expressed as % toxicity. Results are expressed as mean±SE from at least three independent experiments. % toxicity is calculated as: (s.a.of Aβ-/LBA-/SP-treated−s.a.control)÷(s.a.Aβ-treated−s.a.control). […] The unit of concentration of SP600125 was converted from […] to μg/ml for the purpose of comparison with LBA. […] The toxicity was 100% when using SP600125 at more than 20 μM (data not shown). SP600125 was effective from 1.1 μg/ml to 4.4 μ/ml; the range is very narrow when compared with that of LBA.
(§1) We separated different fractions by ion-exchange chromatography. Activity of caspase-3 served as an index for neuronal apoptosis. […] The biochemical analysis of caspase-3 activity was confirmed by morphological examination (FIG. 17). Upon exposure to Aβ peptide, neurites were broken and neurons were undergoing apoptosis.
For apoptosis analysis, the activity of caspase-3 serves as an index for neuronal apoptosis. […] A hundred microgram per […] exerted a nearly 100% neuroprotective effects (FIG. 20).

[2] = tested on: neurons exposed to Aβ25-35 peptide; assay: LDH release cytotoxicity assay in neurons exposed to Aβ-peptide; settings: Aβ25-35 peptide 25 μM alone, 24 h; control 24.7±0.45%; mean±SE
Method: To examine the effects of the aqueous extract LBA from Lycium barbarum on Aβ-peptide-induced neurotoxicity, neurons were pretreated with LBA (ranging from 0.1 μg/ml to 500 μg/ml) for 1 hour, followed by a 24-hour exposure to Aβ25-35 peptide (25 μM). For cytotoxicity analysis, the extracellular concentration of LDH was measured. […] For the control group, the release of LDH representing natural neuronal death was 24.7±0.45% of the total LDH release. Neurons exposed to Aβ-peptide increased the release of LDH to 38.0±0.92%.
The effects of the basic extract LBB from Lycium barbarum on Aβ-peptide-induced neurotoxicity were also investigated using the same approaches as for LBA. For cytotoxicity analysis, the extracellular concentration of LDH was measured.

[3] = tested on: caspase-2; assay: colorimetric caspase-2 activity assay in neurons exposed to Aβ-peptide; settings: Aβ-peptide alone
Description: Caspase-2 is an important index for neuronal apoptosis for β-amyloid peptide neurotoxicity. It has been reported that Aβ-peptide triggered activation of caspase-2. […] Therefore, we used the colorimetric method to determine caspase-2 activity. For caspase-2 activity, the trend was similar to that of caspase-3. Neurons exposed to Aβ-peptide triggered a 1.6-fold increase in caspase-2 activity.
Caspase-2 is an important index for neuronal apoptosis for β-amyloid peptide neurotoxicity. For caspase-2 activity, the trend was similar to that of caspase-3. We also used colorimetric method to determine caspase-2 activity.

[4] = tested on: neurons exposed to Aβ peptide; assay: morphological changes of neurons exposed to Aβ-peptide; settings: LBA 100 μg/ml, LBB 500 μg/ml, heparin 1 μM; 1 h, then Aβ peptide 25 μM 24 h
Method: Since LBA and LBB contain both carbohydrate and amino acid, we use heparin to make a comparison of their protective effects. Neurons were pre-incubated with either heparin (1 μM), LBA (100 μg/ml) or LBB (500 μg/ml) for 1 hour, followed by a 24-hour exposure to Aβ peptide (25 μM). The morphology of neurons after different treatments is shown in FIG. 12, in which (A) Control, (B) Aβ-peptide alone, (C) LBA (100 μg/ml), (D) LBA (100 μg/ml)+Aβ, (E) LBB (500 μg/ml), (F) LBB (500 μg/ml)+Aβ, (G) Heparin (1 μM) and (H) Heparin (1 μM)+Aβ. […] In B, neurons treated with Aβ-peptide for 24 hours undergo apoptosis, as shown by the destruction of the fine neurite network. […] G and H were neurons pre-incubated with heparin, and then without and with Aβ-peptide exposure. […] Based on the morphology of neurons, the mode of neuroprotection of LBA and LBB is somewhat different to that of heparin.
as §1

[Cl-].[Li+] [LiCl, Lithium Chloride]
caspase-3 activity as percent toxicity ([1]; 850 μ/ml (20 mM), 1 h pretreatment, Aβ25-35 25 μM 24 h, lowest value): 8.5%
toxicity to neurons (caspase-3 percent toxicity) ([1]; about 85 μg/ml (2 mM), Aβ25-35 25 μM 24 h): toxic to neurons

Oc1c2ccccc2c2c3c(cccc13)N=N2 [SP600125]
caspase-3 activity as % toxicity ([1]; 1.1 μg/ml (5 μM), 1 h pretreatment, Aβ-peptide 25 μM 16 h): 23.8%
caspase-3 activity as % toxicity ([1]; 4.4 μg/ml (20 μM), 1 h pretreatment, Aβ-peptide 25 μM 16 h): 69.3%
caspase-3 activity as % toxicity ([1]; more than 20 μM, data not shown): 100%

Aβ-peptide: β-amyloid peptide fragment 25-35 used at 25 μM as the neurotoxic challenge (GSNKGAIIGLM; Amyloid-beta protein 42; UniProt P05067 696-706, looked up, fragment)
release of LDH, percentage of total LDH release [2]: 38.0±0.92%
caspase-3 activity ([1]; Aβ-peptide treated group, no extract): 2.13 fold
caspase-2 activity [3]: 1.6 fold

heparin
morphology of neurons after pre-incubation and Aβ peptide [4]: elongated neurons
